Reference: US20120121707A1, “Tolbutamide Particle And Preparing Method Thereof And Method Of Reducing A Blood Glucose” (National Taiwan University, priority 2010, published 2012)

Experiments:
[1] = cited from earlier work
[2] = Particle size distribution analysis of tolbutamide particles; format: physicochemical
Source text: (§1) In the embodiments 1 to 4, the usage amount of the bulk drug of tolbutamide is in a range of 2 to 5 gram, and the other operation conditions, e.g. the pressures and the temperature of mixing, the temperatures before and after the expansion and the particle sizes of the tolbutamide micro-particles, are listed in Table 1 below.
as §1, with “embodiments 5” for “embodiments 1”, “to 8,” for “to 4,”, “Table 2” for “Table 1”
FIG. 1A is the schematic diagram showing the distribution and the cumulative distribution of the particle sizes for the bulk drug of tolbutamide, wherein the average particle size is 89.4 micron. FIG. 1B is the schematic diagram showing the distribution and the cumulative distribution of the particle sizes for the tolbutamide micro-particles obtained by using the method of the rapid expansion of supercritical solution (RESS) in the fourth embodiment. FIG. 1C is the schematic diagram showing the distribution and the cumulative distribution of the particle sizes for the tolbutamide micro-particles obtained by using the method of RESS with solid cosolvent (RESS-SC) in the eighth embodiment. […]

SMILES	solubility in ethanol and chloroform ([1]; ethanol and chloroform)	solubility in water ([1]; water)	average particle size ([2]; Table 1, RESS method, supercritical CO2, no cosolvent, bulk drug as comparison) [μm]	average particle size ([2]; text on FIGS. 1A-1D) [micron]
CCCCNC(=O)NS(=O)(=O)c1ccc(C)cc1 [tolbutamide]	soluble in ethanol and chloroform	almost insoluble in the water	–	–
CCCCNC(=O)NS(=O)(=O)c1ccc(C)cc1 [Bulk drug of tolbutamide, tolbutamide]	–	–	89.4	89.4
